Data published in US10301299B2, “Glycosidase inhibitors” (Merck Patent GmbH, priority 2013, dated 2019).

Target: T1, His-Tagged hOGA (Homo sapiens, UniProt O60502)
T1 sequence (O60502 1-916): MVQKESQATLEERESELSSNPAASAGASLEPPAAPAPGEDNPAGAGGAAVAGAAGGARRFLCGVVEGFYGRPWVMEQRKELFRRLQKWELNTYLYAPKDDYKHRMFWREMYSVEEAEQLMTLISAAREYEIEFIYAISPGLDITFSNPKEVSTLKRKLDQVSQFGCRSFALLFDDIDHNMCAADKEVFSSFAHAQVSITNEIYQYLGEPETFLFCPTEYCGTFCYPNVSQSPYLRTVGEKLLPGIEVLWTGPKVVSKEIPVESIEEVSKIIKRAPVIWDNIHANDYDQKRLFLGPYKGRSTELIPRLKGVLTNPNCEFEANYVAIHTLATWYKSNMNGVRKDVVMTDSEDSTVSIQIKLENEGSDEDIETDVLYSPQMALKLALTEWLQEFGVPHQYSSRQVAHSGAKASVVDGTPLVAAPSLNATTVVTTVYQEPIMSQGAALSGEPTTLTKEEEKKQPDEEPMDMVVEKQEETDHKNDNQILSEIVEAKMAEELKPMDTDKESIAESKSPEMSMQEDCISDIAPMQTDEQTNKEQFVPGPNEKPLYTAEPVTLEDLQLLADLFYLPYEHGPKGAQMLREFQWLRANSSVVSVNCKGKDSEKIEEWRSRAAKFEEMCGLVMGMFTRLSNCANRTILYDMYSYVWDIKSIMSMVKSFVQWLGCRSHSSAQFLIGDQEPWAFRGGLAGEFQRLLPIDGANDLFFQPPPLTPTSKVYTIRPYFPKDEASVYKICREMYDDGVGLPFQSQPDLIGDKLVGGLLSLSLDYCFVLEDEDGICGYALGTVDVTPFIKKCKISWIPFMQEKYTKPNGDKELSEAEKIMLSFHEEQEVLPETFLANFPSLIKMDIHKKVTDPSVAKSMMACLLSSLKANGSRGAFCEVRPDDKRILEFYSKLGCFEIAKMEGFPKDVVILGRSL
Experiment: Human O-GlcNAcase enzyme inhibition assay
Type: biochemical
Conditions: not given
Protocol: The following reaction components were added to a final volume of 10 μL in Mcllvaine's Buffer (pH 6.5): 20 nM His-Tagged hOGA and 10 μM Fluorescein mono-beta-D-(2-deoxy-2-N-acetyl) glucopyranoside (FL-GlcNAc; Marker Gene Technologies Inc, Part # M1485). […] The amount of fluorescence measured was plotted against the concentration of inhibitor to produce a sigmoidal dose response curve, from which an IC50 was calculated.

Compound | IC50 [nM]
CC(=O)Nc1ncc(CN2CCC(C#N)(c3ccccc3)CC2)s1 [Compound 23, N-[5-(4-cyano-4-phenyl-piperidin-1-ylmethyl)-thiazol-2-yl]-acetamide] | > 10000
CC(=O)Nc1ncc(CN2CCC(Cc3ccccc3)CC2C)s1 (centres unmarked) [Compound 51, N-(5-((4-BENZYL-2-METHYLPIPERIDIN-1-YL)METHYL)THIAZOL-2-YL)ACETAMIDE] | < 200
CC(=O)Nc1ncc(CN2CCC(Cc3ccc(C)cc3)CC2)s1 [Compound 54, N-(5-((4-(4-METHYLBENZYL)PIPERIDIN-1-YL)METHYL)THIAZOL-2-YL)ACETAMIDE] | < 200
COc1ccc(CC2CCN(Cc3cnc(NC(C)=O)s3)CC2)cc1 [Compound 55, N-(5-((4-(4-METHOXYBENZYL)PIPERIDIN-1-YL)METHYL)THIAZOL-2-YL)ACETAMIDE] | < 200

Same assay, conditions: 20 nM His-Tagged hOGA, 10 μM FL-GlcNAc, pH 6.5, 60 min; read-out: hOGA enzyme inhibition (IC50)

Compound | IC50 [nM]
CC(=O)Nc1ncc(CN2CCC(Cc3ccccc3)C(F)C2)s1 (single isomer, unassigned) [Compound 52, N-(5-((-4-BENZYL-3-FLUOROPIPERIDIN-1-YL)METHYL)THIAZOL-2-YL)ACETAMIDE] | < 200
CC(=O)Nc1ncc(CN2CCC(c3ccccc3)CC2)s1 [Compound 1, N-(5-((4-phenylpiperidin-1-yl)methyl)thiazol-2-yl)acetamide] | < 200
COC(=O)Nc1ncc(CN2CCC(c3ccccc3)CC2)s1 [Compound 2, [5-(4-Phenyl-piperidin-1-ylmethyl)-thiazol-2-yl]-carbamic acid methyl ester] | 1000 to 10000
CCC(=O)Nc1ncc(CN2CCC(c3ccccc3)CC2)s1 [Compound 3, N-(5-((4-phenylpiperidin-1-yl)methyl)thiazol-2-yl)propionamide] | 200 to 1000
C=CC(=O)Nc1ncc(CN2CCC(c3ccccc3)CC2)s1 [Compound 4, N-[5-(4-phenyl-piperidin-1-ylmethyl)-thiazol-2-yl]-acrylamide] | 1000 to 10000
CCNc1ncc(CN2CCC(c3ccccc3)CC2)s1 [Compound 5, N-ethyl-5-((4-phenylpiperidin-1-yl)methyl)thiazol-2-amine] | > 10000
CCCNc1ncc(CN2CCC(c3ccccc3)CC2)s1 [Compound 6, 5-((4-phenylpiperidin-1-yl)methyl)-N-propylthiazol-2-amine] | > 10000
Cc1ncc(CN2CCC(c3ccccc3)CC2)s1 [Compound 7, 2-methyl-5-((4-phenylpiperidin-1-yl)methyl)thiazole] | > 10000
CCc1ncc(CN2CCC(c3ccccc3)CC2)s1 [Compound 8, 2-ethyl-5-((4-phenylpiperidin-1-yl)methyl)thiazole] | > 10000
CC(=O)N(C)c1ncc(CN2CCC(c3ccccc3)CC2)s1 [Compound 9, N-methyl-N-(5-((4-phenylpiperidin-1-yl)methyl)thiazol-2-yl)acetamide] | 1000 to 10000
CNC(=O)Nc1ncc(CN2CCC(c3ccccc3)CC2)s1 [Compound 10, 1-methyl-3-(5-((4-phenylpiperidin-1-yl)methyl)thiazol-2-yl)urea] | 1000 to 10000
CS(=O)(=O)Nc1ncc(CN2CCC(c3ccccc3)CC2)s1 [Compound 11, N-[5-(4-phenyl-piperidin-1-ylmethyl)-thiazol-2-yl]-methanesulfonamide] | > 10000
c1ccc(C2CCN(Cc3cnc(NC4CC4)s3)CC2)cc1 [Compound 12, N-cyclopropyl-5-((4-phenylpiperidin-1-yl)methyl)thiazol-2-amine] | > 10000
CC(=O)Nc1ncc(CN2CCC(c3ccccc3)CC2)o1 [Compound 13] | 1000 to 10000
CC(=O)Nc1ncc(CN2CCC(c3ccc(C)cc3)CC2)s1 [Compound 14, N-(5-((4-(p-tolyl)piperidin-1-yl)methyl)thiazol-2-yl)acetamide] | < 200
CC(=O)Nc1ncc(CN2CCC(C)CC2)s1 [Compound 15, N-[5-(4-methyl-piperidin-1-ylmethyl)-thiazol-2-yl]-acetamide] | 1000 to 10000
COc1ccc(C2CCN(Cc3cnc(NC(C)=O)s3)CC2)cc1 [Compound 16, N-(5-((4-(4-methoxyphenyl)piperidin-1-yl)methyl)thiazol-2-yl)acetamide] | < 200
CC(=O)Cc1ncc(CN2CCC(c3ccccc3)CC2)s1 [Compound 17] | > 10000
CCC(=O)Cc1ncc(CN2CCC(c3ccccc3)CC2)s1 [Compound 18] | > 10000

Compound | IC50 [nM]
CC(=O)Nc1ncc(CN2CCN(c3ccccc3)CC2)s1 [Compound 19, N-[5-(4-phenyl-piperazin-1-ylmethyl)-thiazol-2-yl]-acetamide] | 200 to 1000
CC(=O)Nc1ncc(CNCCCc2ccccc2)s1 [Compound 20, N-{5-[(3-phenyl-propylamino)-methyl]-thiazol-2-yl}-acetamide] | 200 to 1000
CC(=O)Nc1ncc(CN2CCC(O)(c3ccccc3)CC2)s1 [Compound 24, N-[5-(4-hydroxy-4-phenyl-piperidin-1-ylmethyl)-thiazol-2-yl]-acetamide] | 1000 to 10000
CC(=O)Nc1ncc(CN2CCC(N(C)C)CC2)s1 [Compound 34, N-(5-((4-(dimethylamino)piperidin-1-yl)methyl)thiazol-2-yl)acetamide] | > 10000
CC(=O)Nc1ncc(CN2CCC(c3ccccc3C(=O)O)CC2)s1 [Compound 44, 2-(1-((2-acetamidothiazol-5-yl)methyl)piperidin-4-yl)benzoic acid] | > 10000
CC(=O)Nc1ncc(CN2CCC(Cc3ccc(Cl)cc3)CC2)s1 [Compound 46, N-(5-((4-(4-chlorobenzyl)piperidin-1-yl)methyl)thiazol-2-yl)acetamide] | < 200
CC(=O)Nc1ncc(CN2CCC(Cc3ccc4c(c3)OCO4)CC2)s1 [Compound 47] | < 200
CC(=O)Nc1ncc(CN2CCC(Cc3ccc(F)cc3)CC2)s1 [Compound 48, N-(5-((4-(4-FLUOROBENZYL)PIPERIDIN-1-YL)METHYL)THIAZOL-2-YL)ACETAMIDE] | < 200
CC(=O)Nc1ncc(CN2CCC(Cc3ccc(C(F)(F)F)cc3)CC2)s1 [Compound 49, N-(5-((4-(4-(TRIFLUOROMETHYL)BENZYL)PIPERIDIN-1-YL)METHYL)THIAZOL-2-YL)ACETAMIDE] | < 200
CC(=O)Nc1ncc(CN2CCC(Cc3cccc(F)c3)CC2)s1 [Compound 50, N-(5-((4-(3-FLUOROBENZYL)PIPERIDIN-1-YL)METHYL)THIAZOL-2-YL)ACETAMIDE] | < 200
CC(=O)Nc1ncc(CN2CCC(Cc3ccccc3)C(C)C2)s1 (centres unmarked) [Compound 53, N-(5-((4-BENZYL-3-METHYLPIPERIDIN-1-YL)METHYL)THIAZOL-2-YL)ACETAMIDE] | < 200
CC(=O)Nc1ncc(CN2CCC(Cc3ccc4ccccc4c3)CC2)s1 [Compound 56] | < 200
CC(=O)Nc1ncc(CN2CCN(C(C)c3ccc4c(c3)OCO4)CC2)s1 (centres unmarked) [Compound 58, N-(5-((4-(1-(BENZO[D][1,3]DIOXOL-5-YL)ETHYL)PIPERAZIN-1-YL)METHYL)THIAZOL-2-YL)ACETAMIDE] | 1000 to 10000
CC(c1ccc2c(c1)OCO2)N1CCN(Cc2cnc(N3CCNC(=O)C3)s2)CC1 (centres unmarked) [Compound 59, 4-(5-((4-(1-(BENZO[D][1,3]DIOXOL-5-YL)ETHYL)PIPERAZIN-1-YL)METHYL)THIAZOL-2-YL)PIPERAZIN-2-ONE] | 1000 to 10000
CC(=O)Nc1ncc(CN2CCC(Oc3ccccc3)CC2)s1 [Compound 61, N-(5-((4-PHENOXYPIPERIDIN-1-YL)METHYL)THIAZOL-2-YL)ACETAMIDE] | 200 to 1000
CC(=O)Nc1ncc(CN2CCC(CCc3ccccc3)CC2)s1 [Compound 62] | < 200
CC(=O)Nc1ncc(CN2CCC(Cc3ccc4nccnc4c3)CC2)s1 [Compound 63] | < 200
CC(=O)Nc1ncc(CN2CCC(Cc3cc(F)cc(F)c3)CC2)s1 [Compound 64, N-(5-((4-(3,5-DIFLUOROBENZYL)PIPERIDIN-1-YL)METHYL)THIAZOL-2-YL)ACETAMIDE] | < 200

Test system: B35 rat neuroblastoma cells
Experiment: Cellular O-GlcNAcylation assay (tau O-GlcNAc S400, ICC)
Type: cell-based
Conditions: Neuroblastoma cell, 16 h, tau O-GlcNAcylated at serine 400
Protocol: The following day cells were treated with appropriate concentration of a solution of inhibitor for 16 h at 37° C. in 5% CO2. Cells were fixed in 100 μl 4% paraformaldehyde for 15 min at room temperature, followed by three washes in PBS buffer. The cells were then permeabilized with 0.1% Triton X-100 for 60 min at room temperature. After three washes in PBS the cells were blocked with 10% goat serum containing 1% BSA in PBS buffer for two hours at room temperature. The cells were then incubated with a monoclonal rabbit antibody specific for tau O-GlcNAcylated at serine 400 (Epitomics) at a 1:1000 dilution overnight at 4° C. […] To calculate an EC50 the total peak intensity was plotted against the concentration of inhibitor to produce a sigmoidal dose response curve.

Compound | EC50 [nM]
CC(=O)Nc1ncc(CN2CCC(c3ccccc3)CC2)s1 [Compound 1, N-(5-((4-phenylpiperidin-1-yl)methyl)thiazol-2-yl)acetamide] | 200 to 1000
COC(=O)Nc1ncc(CN2CCC(c3ccccc3)CC2)s1 [Compound 2, [5-(4-Phenyl-piperidin-1-ylmethyl)-thiazol-2-yl]-carbamic acid methyl ester] | > 10000
CC(=O)Nc1ncc(CN2CCC(c3ccc(C)cc3)CC2)s1 [Compound 14, N-(5-((4-(p-tolyl)piperidin-1-yl)methyl)thiazol-2-yl)acetamide] | 200 to 1000
COc1ccc(C2CCN(Cc3cnc(NC(C)=O)s3)CC2)cc1 [Compound 16, N-(5-((4-(4-methoxyphenyl)piperidin-1-yl)methyl)thiazol-2-yl)acetamide] | 1000 to 10000
CC(=O)Nc1ncc(CN2CCN(c3ccccc3)CC2)s1 [Compound 19, N-[5-(4-phenyl-piperazin-1-ylmethyl)-thiazol-2-yl]-acetamide] | 1000 to 10000
CC(=O)Nc1ncc(CNCCCc2ccccc2)s1 [Compound 20, N-{5-[(3-phenyl-propylamino)-methyl]-thiazol-2-yl}-acetamide] | 1000 to 10000
